According to US20250241901A1, “ACTIVATION OF MNRR1 / CHCHD2 AS A THERAPEUTIC TARGET FOR MITOCHONDRIA ASSOCIATED DISORDERS” (Wayne State University, priority 2024, published 2025):

Columns and labels:
Assay type in all cases: cell-based, human
[1] = system: MNRR1; assay: MNRR1 protein levels in MELAS cybrid cells (immunoblot); details: 10 μM; for MNRR1 protein levels: DW7 cells, 24 h
Protocol: FIGS. 6A-6C: FIG. 6A: Above, Chemical structures of nitazoxanide, its metabolites, and similar compounds. Abbreviations: P4, Phenyl-4-aminosalicylic acid; 4ABA, 4-Aminobenzanilide; 4ASA, 4-Amino salicylic acid; BA, Benzanilide; PBO, Phenyl benzoate; PSA, Phenyl salicylic acid; 2AN, 2-Amino 5-nitrothiazole. Below, Equal amounts of lysates of MELAS cells treated with Vehicle (DMSO) or the various compounds (10 μM) for 24 h were separated on an SDS-PAGE gel and probed for MNRR1 levels. Actin was probed as a loading control and numbers below represent an average and SD of 3 biological replicates. FIGS. 6B-6C: MNRR1 transcript levels are shown relative to 18S rRNA (n=4 biological replicates, error bars represent SE). In all figures, * indicates p<0.05, ** indicates p<0.005.
FIGS. 11A-11F: RBPJk and HIF2α compete for binding at the ORE in the MNRR1 promoter to regulate transcription. FIG. 11A: Chromatin immunoprecipitation-qPCR assessing binding of HIF2α to the endogenous MNRR1 promoter in MELAS cybrid cells with 0% (CL9) and 70% heteroplasmy (DW7). FIG. 11B: Dual luciferase reporter assay showing relative activation of MNRR1-luciferase levels in MELAS cybrid cells overexpressing varying proportions of constitutively active RBPJk (RBP-CA) and HIF2α. FIG. 11C: Dual luciferase reporter assay showing relative activation of MNRR1-luciferase levels in MELAS cybrid cells overexpressing the WT (FIG. 9A) or ΔORE (positions 47-53 in SEQ ID NO: 25 in FIG. 9C) promoter with EV (dotted line) or HIF2α. FIG. 11D: Equal amounts of Control or HIFα knockdown (KD) MELAS cybrid cell lysates were separated on an SDS-PAGE gel and probed for HIF2α and MNRR1 levels. Tubulin was probed as loading control. FIG. 11E: Oxygen consumption measured from Control or HIFα knockdown (KD) MELAS cybrid cells. (n=4 biological replicates, error bars represent SE). FIG. 11F: Left, Oxygen consumption measured from MELAS cybrid cells treated with vehicle (DMSO) or PT2385 (10 μM), an inhibitor of HIF2α function, for 24 h. Right, Equal amounts of MELAS cybrid cell lysates treated with vehicle (DMSO) or PT2385 (10 μM) for 24 h, separated on an SDS-PAGE gel, and probed for MNRR1 levels. GAPDH was probed as a loading control.
Immunoblotting: Immunoblotting was performed as described previously. Cell lysates for immunoblotting were prepared using RIPA buffer (Abcam, Waltham, MA) and included a protease and phosphatase inhibitor cocktail (Sigma, St. Louis, MO). […] The clear supernatants were transferred to new tubes and quantified using the Bradford reagent with BSA as standard (BioRad, Hercules. CA). […] For detection after immunoblotting, the SuperSignal™ West Pico PLUS substrate (ThermoFisher, Waltham, MA) was used to generate chemiluminescence signal, which was detected with X-Ray film (RadTech, Vassar, MI).

[2] = system: PHD3; assay: PHD3 protein levels in MELAS cybrid cells (immunoblot); details: 10 μM, 24 h
Protocol: FIGS. 14A-14D: PHD3 levels are reduced in MELAS cybrid cells and enhanced by nitazoxanide to increase MNRR1 levels. FIG. 14A: Transcript levels of PHD1, 2, and 3 in MELAS cybrid cells harboring the levels of heteroplasmy shown (data from). FIG. 14B: Protein levels of PHD3 in MELAS cybrid cells with 0% (CL9) and 70% heteroplasmy (DW7). GAPDH was probed as loading control. FIG. 14C: Equal amounts of MELAS cybrid cell lysates, treated with vehicle (DMSO), nitazoxanide, or tizoxanide (10 μM) for 24 h, were separated on an SDS-PAGE gel and probed for PHD1, PHD3, MNRR1, and Tubulin. FIG. 14D: Oxygen consumption measured from MELAS cybrid cells overexpressing PHD1 or PHD3. (n=4 biological replicates, error bars show SE).
Immunoblotting: Immunoblotting was performed as described previously. Cell lysates for immunoblotting were prepared using RIPA buffer (Abcam, Waltham, MA) and included a protease and phosphatase inhibitor cocktail (Sigma, St. Louis, MO). Total protein extracts were obtained by centrifugation at 21,000×g for 30 min at 4° C. The clear supernatants were transferred to new tubes and quantified using the Bradford reagent with BSA as standard (BioRad, Hercules. CA). […] For detection after immunoblotting, the SuperSignal™ West Pico PLUS substrate (ThermoFisher, Waltham, MA) was used to generate chemiluminescence signal, which was detected with X-Ray film (RadTech, Vassar, MI).

[3] = system: mtDNA harboring the m.3243A>G mutation; assay: Heteroplasmy by Haelll digestion of mtDNA fragment, DW7 cells; details: 10 μM, 144 h
Protocol: FIGS. 7A-7E: MNRR1 activation by tizoxanide enhances mtDNA biogenesis and mitophagy to shift heteroplasmy in MELAS cells. FIG. 7A: Oxygen consumption measured from MELAS cybrid cells treated with vehicle (DMSO) or tizoxanide (10 μM) for 48 h (n=4 biological replicates, error bars represent SE). FIG. 7B: Haelll restriction enzyme digestion of a PCR-amplified fragment of mtDNA harboring the m.3243A>G mutation from DW7 cells treated with vehicle (DMSO) or tizoxanide (10 μM) for 144 h. […] FIG. 7C: Genes identified using qPCR of MELAS cybrid cells stably overexpressing EV or MNRR1. FIG. 7D: MtDNA levels are shown relative to nuclear DNA (nDNA) (GAPDH) (n=5 biological replicates, error bars represent SE). FIG. 7E: Equal amounts of MELAS cybrid cell lysates, treated with vehicle (DMSO) or tizoxanide (10 μM) for 48 h, were separated on an SDS-PAGE gel and probed for PGC1a, PINK1, LC3 A/B, MNRR1, and Tubulin. FIG. 7F: Equal numbers of MELAS cells were treated as in FIG. 7E, separated on an SDS-PAGE gel, and probed for phospho-ubiquitin (S65) levels. Tubulin was probed as a loading control. In all figures, * indicates p<0.05, ** indicates p<0.005.
Restriction Enzyme Digestion: DNA was analyzed for the MELAS mutation as described previously. […]

| Structure (SMILES) | MNRR1 protein levels [1] | MNRR1 levels ([1]; MELAS cybrid cells, 48 h) | PHD3 protein level [2] | increase in proportion of WT mtDNA [3] |
| --- | --- | --- | --- | --- |
| O=C(Nc1ncc([N+](=O)[O-])s1)c1ccccc1O [tizoxanide, Tizoxanide] | significant increase | increases MNRR1 levels | most increased | about 14% |
| CC(=O)Oc1ccccc1C(=O)Nc1ncc([N+](=O)[O-])s1 [nitazoxanide, Nitazoxanide] | significant increase | – | increasing | – |
